Measurements taken from publication PMC10384010, “Chromatographic Data in Statistical Analysis of BBB Permeability Indices” (Membranes, 2023).

Columns and labels:
[1] = plasma protein binding, given as fraction; ref Drugbank; cited from earlier work
[2] = Normal-phase TLC on silica gel 60 F254 (Rf); format: physicochemical; conditions: water:methanol:acetonitrile 60:20:20, ammonium acetate pH 7.4
[3] = HPLC on IAM (immobilized artificial membrane) column, retention factor; format: physicochemical; conditions: IAM.PC.DD.2 column; for k(IAM) retention factor: 10 mM phosphate buffer pH 7.4:acetonitrile 80:20; for logkIAM: logarithm of retention factor, phosphate buffer pH 7.4:acetonitrile 80:20
[4] = Reversed-phase TLC on RP-2 silanized plates (Rf); format: physicochemical; conditions: silica gel 60 RP-2 F254 silanized; water:methanol:acetonitrile 60:20:20, ammonium acetate pH 7.4

Row | Molecule | PB (protein binding) [1] | NP (Rf from NP TLC plate) [2] | k(IAM) retention factor [3] | logkIAM [3] | RP (Rf from RP-2 TLC plate) [4]
1 | CCCC(=O)Nc1ccc(OCC(O)CNC(C)C)c(C(C)=O)c1 (stereo not shown) [acebutolol] | 0.26 |  |  |  | 
2 | O=C(O)COC(=O)Cc1ccccc1Nc1c(Cl)cccc1Cl [aceclofenac] | 0.99 | 0.89 | 2.63 | 0.42 | 
3 | CC(=O)Nc1nnc(S(N)(=O)=O)s1 [acetazolamid] | 0.98 |  |  |  | 0.97
4 | Nc1nc2c(ncn2COCCO)c(=O)[nH]1 [aciclovir] | 0.21 |  | 0.09 | -1.04 | 0.99
5 | Oc1ncnc2[nH]ncc12 [allopurinnol] |  | 0.89 |  |  | 0.97
6 | Cc1nnc2n1-c1ccc(Cl)cc1C(c1ccccc1)=NC2 [alprazolam] | 0.8 |  | 3.14 | 0.50 | 
7 | CCCCc1oc2ccccc2c1C(=O)c1cc(I)c(OCCN(CC)CC)c(I)c1 [amiodarone] |  |  |  |  | 0.33
8 | CCOC(=O)C1=C(COCCN)NC(C)=C(C(=O)OC)C1c1ccccc1Cl (stereo not shown) [amlodipine] |  |  | 98.90 | 2.00 | 0.61
9 | CC(C)NCC(O)COc1ccc(CC(N)=O)cc1 (stereo not shown) [atenolol] |  | 0.34 |  |  | 0.58
10 | CC(C)c1c(C(=O)Nc2ccccc2)c(-c2ccccc2)c(-c2ccc(F)cc2)n1CC[C@@H](O)C[C@@H](O)CC(=O)O [atorvastatin] |  |  |  |  | 0.8
11 | CC(C)NCC(O)COc1ccc(CCOCC2CC2)cc1 (stereo not shown) [betaxolol] | 0.5 | 0.66 |  |  | 0.27
12 | O=C1CC2(CCCC2)CC(=O)N1CCCCN1CCN(c2ncccn2)CC1 [buspirone] |  | 0.57 | 7.00 | 0.84 | 
13 | Cn1c(=O)c2c(ncn2C)n(C)c1=O [caffeine] |  | 0.82 | 0.18 | -0.75 | 
14 | C[C@H](CS)C(=O)N1CCC[C@H]1C(=O)O [captopril] |  | 0.77 | 0.01 | -2.19 | 
15 | O=C(N[C@H](CO)[C@H](O)c1ccc([N+](=O)[O-])cc1)C(Cl)Cl [chloramphenikol] |  | 0.99 | 1.08 | 0.03 | 0.89
16 | CCN(CC)CCCC(C)Nc1ccnc2cc(Cl)ccc12 (stereo not shown) [chloroquine] | 0.55 |  |  |  | 
17 | O=C(O)c1cn(C2CC2)c2cc(N3CCNCC3)c(F)cc2c1=O [ciprofloxacin] |  | 0.11 |  |  | 0.38
18 | CN(C)CCCC1(c2ccc(F)cc2)OCc2cc(C#N)ccc21 (stereo not shown) [citalopram] | 0.8 |  |  |  | 
19 | CN(C)CCCN1c2ccccc2CCc2ccc(Cl)cc21 [clomipramine] |  | 0.33 |  |  | 
20 | Clc1ccc2c(c1)CCc1cccnc1C2=C1CCNCC1 [desloratidine] |  |  | 50.45 | 1.70 | 

Row | Molecule | PB (protein binding) [1] | NP (Rf from NP TLC plate) [2] | k(IAM) retention factor [3] | logkIAM [3] | RP (Rf from RP-2 TLC plate) [4]
21 | C[C@H]1O[C@@H](O[C@H]2[C@@H](O)C[C@H](O[C@H]3[C@@H](O)C[C@H](O[C@H]4CC[C@@]5(C)[C@H](CC[C@@H]6[C@@H]5C[C@@H](O)[C@]5(C)[C@@H](C7=CC(=O)OC7)CC[C@]65O)C4)O[C@@H]3C)O[C@@H]2C)C[C@H](O)[C@@H]1O [digoxin] |  |  | 3.69 | 0.57 | 
22 | COc1cc2nc(N3CCN(C(=O)C4COc5ccccc5O4)CC3)nc(N)c2cc1OC (stereo not shown) [doxazosin] |  |  | 0.22 | -0.66 | 0.75
23 | CN(C)CCC[C@@]1(c2ccc(F)cc2)OCc2cc(C#N)ccc21 [escitalopram] | 0.56 |  | 32.08 | 1.51 | 
24 | NC(N)=Nc1nc(CSCCC(N)=NS(N)(=O)=O)cs1 [famotidine] |  | 0.7 |  |  | 0.98
25 | OC(Cn1cncn1)(Cn1cncn1)c1ccc(F)cc1F [fluconazole] |  | 0.87 |  |  | 0.9
26 | COCCCC/C(=N\OCCN)c1ccc(C(F)(F)F)cc1 [fluvoxamine] |  | 0.34 |  |  | 
27 | CC(=O)OCC(=O)[C@@]1(O)CC[C@H]2[C@@H]3CCC4=CC(=O)CC[C@]4(C)[C@H]3[C@@H](O)C[C@@]21C [hydrocortisone acetate] | 0.95 | 0.96 | 2.82 | 0.45 | 
28 | CC(C)Cc1ccc(C(C)C(=O)O)cc1 (stereo not shown) [ibuprofen] |  |  | 0.86 | -0.07 | 
29 | CC(C(=O)O)c1cccc(C(=O)c2ccccc2)c1 (stereo not shown) [ketoprofen] |  |  | 0.20 | -0.71 | 
30 | O=C(O)COCCN1CCN([C@H](c2ccccc2)c2ccc(Cl)cc2)CC1 [levocetrizine] |  | 0.63 |  | 0.58 | 
31 | CN(C)C(=O)C(CCN1CCC(O)(c2ccc(Cl)cc2)CC1)(c1ccccc1)c1ccccc1 [loperamide] |  | 0.68 |  |  | 0.75
32 | Cc1cnc(NC(=O)C2=C(O)c3ccccc3S(=O)(=O)N2C)s1 [meloxicam] |  | 0.99 | 0.49 | -0.31 | 
33 | COC(=O)c1ccc(O)cc1 [methyl paraben] |  | 0.97 | 1.94 | 0.29 | 0.85
34 | CCN(CC)CCNC(=O)c1cc(Cl)c(N)cc1OC [metoclopramide] |  |  | 6.16 | 0.79 | 
35 | Nc1cc(N2CCCCC2)nc(N)[n+]1[O-] [minoxidil] |  | 0.43 |  |  | 
36 | CC(C)(O)c1ccccc1CC[C@@H](SCC1(CC(=O)O)CC1)c1cccc(/C=C/c2ccc3ccc(Cl)cc3n2)c1 [montelukast] |  |  | 99.10 | 2.00 | 
37 | COc1ccc2cc([C@H](C)C(=O)O)ccc2c1 [naproxen] |  | 0.92 |  |  | 0.88
38 | CC1COc2c(N3CCN(C)CC3)c(F)cc3c(=O)c(C(=O)O)cn1c23 (stereo not shown) [ofloxacin] | 0.32 | 0.24 |  |  | 
39 | Cc1cc2c(s1)Nc1ccccc1N=C2N1CCN(C)CC1 [olanzapine] |  |  | 20.31 | 1.31 | 
40 | O=C1Nc2ccc(Cl)cc2C(c2ccccc2)=NC1O (stereo not shown) [oxazepam] |  | 0.93 | 4.78 | 0.68 | 0.83

Row | Molecule | PB (protein binding) [1] | NP (Rf from NP TLC plate) [2] | k(IAM) retention factor [3] | logkIAM [3] | RP (Rf from RP-2 TLC plate) [4]
41 | CCN(CC)CC#CCOC(=O)C(O)(c1ccccc1)C1CCCCC1 (stereo not shown) [oxybutinin] |  | 0.68 | 49.68 | 1.70 | 0.29
42 | CC(C)NCC(O)COc1cccc2[nH]ccc12 (stereo not shown) [pindolol] | 0.4 | 0.53 | 6.09 | 0.78 | 
43 | CCC1(c2ccccc2)C(=O)NCNC1=O [primidone] |  | 0.9 |  |  | 0.93
44 | CCCNCC(O)COc1ccccc1C(=O)CCc1ccccc1 (stereo not shown) [propafenone] |  | 0.57 |  |  | 0.56
45 | CC(C)NCC(O)COc1cccc2ccccc12 (stereo not shown) [propranolol] |  | 0.54 | 28.09 | 1.45 | 
46 | CCCc1cc(=O)[nH]c(=S)[nH]1 [propylthiouracil] | 0.82 |  |  |  | 
47 | CN[C@@H](C)[C@@H](O)c1ccccc1 [pseudoephedrine] |  |  | 2.21 | 0.34 | 
48 | CC(N)C12CC3CC(CC(C3)C1)C2 (stereo not shown) [rimantadine] |  | 0.92 |  |  | 0.95
49 | Cc1nc2n(c(=O)c1CCN1CCC(c3noc4cc(F)ccc34)CC1)CCCC2 [risperidone] |  |  | 4.83 | 0.68 | 
50 | CC(C)c1nc(N(C)S(C)(=O)=O)nc(-c2ccc(F)cc2)c1/C=C/[C@@H](O)C[C@@H](O)CC(=O)O [rosuvastatin] |  | 0.9 | 0.96 | -0.02 | 0.92
51 | CCC(C)(C)C(=O)O[C@H]1C[C@@H](C)C=C2C=C[C@H](C)[C@H](CC[C@@H]3C[C@@H](O)CC(=O)O3)[C@H]21 [simvastatin] |  | 0.19 |  |  | 0.66
52 | CN1C(=O)C(O)N=C(c2ccccc2)c2cc(Cl)ccc21 (stereo not shown) [temazepam] |  |  | 6.74 | 0.83 | 
53 | Cn1c(=O)c2[nH]cnc2n(C)c1=O [theophylline] |  |  | 0.12 | -0.94 | 
54 | CCS(=O)(=O)CCn1c([N+](=O)[O-])cnc1C [tinidazole] | 0.12 | 0.89 |  |  | 
55 | Cc1ccc(O)c([C@H](CCN(C(C)C)C(C)C)c2ccccc2)c1 [tolterodine] |  |  | 0.21 | -0.68 | 
56 | COc1cccc(C2(O)CCCCC2CN(C)C)c1 (stereo not shown) [tramadol] | 0.2 |  |  |  | 
57 | CCCCC(=O)N(Cc1ccc(-c2ccccc2-c2nnn[nH]2)cc1)[C@H](C(=O)O)C(C)C [valsartan] | 0.955 |  | 0.08 | -1.10 | 
58 | Cc1ccc(-c2nc3ccc(C)cn3c2CC(=O)N(C)C)cc1 [zolpidem] |  |  | 2.60 | 0.42 | 
59 | PABA |  |  | 0.01 | -1.88 | 
60 | gentamycin |  | 0.96 |  |  | 0.911
